The record followed here is patent US20080293771A1, “AZACYCLYLBENZAMIDE DERIVATIVES AS HISTAMINE-3 ANTAGONISTS” (Wyeth, priority 2007, published 2008).

Where a name gives a salt, the structure may show the parent alone.

For `Cc1nc2ccccc2n1-c1ccc(C(=O)N(C)[C@@H]2CCN(C3CCCC3)C2)cc1` (as salt: hydrochloride), the melting point (usually the temperature, or range, at which the solid turns liquid) was in the range of 186 to 187 °C. With `CN(C(=O)c1ccc(Cn2ncc3ccccc32)cc1)C1CCN(C2CCC2)CC1` (as salt: hydrochloride) [Example 80, N-(1-cyclobutylpiperidin-4-yl)-4-(1H-indazol-1-ylmethyl)-N-methylbenzamide] the figure was 254 to 256 °C; with `Cc1nc2ccccc2n1-c1ccc(C(=O)N(C)[C@@H]2CCN(CC(C)C)C2)cc1` (as salt: hydrochloride), 189 to 190 °C; with `Cc1nc2ccccc2n1Cc1ccc(C(=O)N(C)[C@@H]2CCN(C(C)C)C2)c2ccccc12` (as salt: hydrochloride) [Example 143a, (R)—N-(1-isopropylpyrrolidin-3-yl)-N-methyl-4-((2-methyl-1H-benzo[d]imidazol-1-yl)methyl)-1-naphthamide], 192 to 194 °C. `Cc1nc2ccccc2n1-c1ccc(C(=O)N(C)[C@H]2CCN(C3CCC3)C2)cc1` (as salt: hydrochloride) had a melting point of 184 to 185 °C. To `CCN(C(=O)c1ccc(-n2c(C)nc3ccccc32)cc1)[C@@H]1CCNC1` (as salt: hydrochloride) [Example 138, (R)—N-ethyl-4-(2-methyl-1H-benzo[d]imidazol-1-yl)-N-(pyrrolidin-3-yl)benzamide hydrochloride] belongs 174 to 176 °C; to `Cc1nc2ccccc2n1-c1ccc(C(=O)N(C)[C@H]2CCN(C3CCC[C@@H](C)C3)C2)cc1` (stereo partly drawn) (as salt: hydrochloride), 187 to 189 °C; to `CN(C(=O)c1ccc(Cn2cccn2)cc1)C1CCN(C2CCCC2)CC1` (as salt: hydrochloride) [Example 93, N-(1-cyclopentylpiperidin-4-yl)-N-methyl-4-(1H-pyrazol-1-ylmethyl)benzamide], 250 °C (dec.). With `Cc1cc(C(=O)N(C)C2CCN(C(C)C)CC2)ccc1-n1c(C)nc2ccccc21` (as salt: hydrochloride) [Example 123, N,3-dimethyl-4-(2-methyl-1H-benzimidazol-1-yl)-N-[1-(1-methylethyl)piperidin-4-yl]benzamide] the figure was 250 °C (dec.); with `Cc1nc2ccccc2n1-c1ccc(C(=O)N(C)[C@@H]2CCN(C3CCC3)C2)cc1F` (as salt: hydrochloride) [Example 104, N-[(3R)-1-cyclobutylpyrrolidin-3-yl]-3-fluoro-N-methyl-4-(2-methyl-1H-benzimidazol-1-yl)benzamide], 164 to 166 °C; with `CC(C)N1CCC(N(C)C(=O)c2ccc(Cn3ncc4ccccc43)cc2)CC1` (as salt: hydrochloride) [Example 79, 4-(1H-indazol-1-ylmethyl)-N-(1-isopropylpiperidin-4-yl)-N-methylbenzamide], 197 to 199 °C.

`CN(C(=O)c1ccc(Cn2cnc3ccccc32)cc1)[C@@H]1CCNC1` (as salt: hydrochloride) [Example 36, (R)-4-((1H-benzo[d]imidazol-1-yl)methyl)-N-methyl-N-(pyrrolidin-3-yl)benzamide Hydrochloride] gave a melting point of 150 to 152 °C. To `Cc1nc2ccccc2n1Cc1ccc(C(=O)N(C)C2CCN(C3CCCC3)CC2)cc1` (as salt: hydrochloride) [Example 48, N-(1-cyclopentylpiperidin-4-yl)-N-methyl-4-[(2-methyl-1H-benzimidazol-1-yl)methyl]benzamide] belongs 280 °C (dec.); to `COc1cc(C(=O)N(C)[C@@H]2CCN(C3CCC3)C2)ccc1-n1c(C)nc2ccccc21` (as salt: hydrochloride) [Example 110, N-[(3R)-1-cyclobutylpyrrolidin-3-yl]-3-methoxy-N-methyl-4-(2-methyl-1H-benzimidazol-1-yl)benzamide], 168 to 170 °C. On to `Cc1cc(C(=O)N(C)C2CCN(C3CCCC3)CC2)ccc1-n1c(C)nc2ccccc21` (as salt: hydrochloride) [Example 124, N-(1-cyclopentylpiperidin-4-yl)-N,3-dimethyl-4-(2-methyl-1H-benzimidazol-1-yl)benzamide], for which the melting point is 240 °C (dec.).

Compound `Cc1nc2ccccc2n1Cc1ccc(C(=O)N(C)C2CCN(C3CCCC3)CC2)c2ccccc12` (as salt: hydrochloride) [Example 144a, N-(1-cyclopentylpiperidin-4-yl)-N-methyl-4-((2-methyl-1H-benzo[d]imidazol-1-yl)methyl)-1-naphthamide] had a melting point of 228 to 230 °C.

`Cc1nc2ccccc2n1-c1ccc(C(=O)N(C)[C@H]2CCN(CC3CC3)C2)cc1` (as salt: hydrochloride) displayed a melting point of 179 to 180 °C. The compound `Cc1nc2ccccc2n1-c1ccc(C(=O)N(C)C2CCN(C(C)C)CC2)cc1` (as salt: hydrochloride) [Example 31, N-(1-isopropylpiperidin-4-yl)-N-methyl-4-(2-methyl-1H-benzimidazol-1-yl)benzamide] came in with a melting point of 282 to 284 °C. To `CC(C)N1CC[C@@H](N(C)C(=O)c2ccc(-n3ncc4ccccc43)cc2)C1` (as salt: hydrochloride) [Example 64, 4-(1H-indazol-1-yl)-N-[(3R)-1-isopropylpyrrolidin-3-yl]-N-methylbenzamide] belongs 175 to 177 °C; to `Cc1nc2ccccc2n1-c1ccc(C(=O)N(C)[C@H]2CCN(C3CCC(C)C3)C2)cc1` (stereo partly drawn) (as salt: hydrochloride), 173 to 175 °C. `COc1cc(-n2c(C)nc3ccccc32)ccc1C(=O)N(C)[C@@H]1CCN(C(C)C)C1` (as salt: hydrochloride) [Example 111, (R)—N-(1-isopropylpyrrolidin-3-yl)-2-methoxy-N-methyl-4-(2-methyl-1H-benzo[d]imidazol-1-yl)benzamide] showed a melting point of 193 to 195 °C. With `CN(C(=O)c1ccc(-n2ncc3ccccc32)cc1)[C@@H]1CCN(C2CCCC2)C1` (as salt: hydrochloride) [Example 66, N-[(3R)-1-cyclopentylpyrrolidin-3-yl]-4-(1H-indazol-1-yl)-N-methylbenzamide] the figure was 151 to 152 °C; with `Cc1cc(C(=O)N(C)[C@@H]2CCN(C(C)C)C2)ccc1-n1c(C)nc2ccccc21` (as salt: hydrochloride) [Example 107, N,3-dimethyl-4-(2-methyl-1H-benzimidazol-1-yl)-N-[(3R)-1-(1-methylethyl)pyrrolidin-3-yl]benzamide], 183 to 185 °C. To `Cc1nc2ccccc2n1-c1ccc(C(=O)N(C)[C@@H]2CCN(C3CCOCC3)C2)cc1` (as salt: hydrochloride) belongs 200 to 202 °C; to `Cc1nc2ccccc2n1-c1ccc(C(=O)N(C)[C@@H]2CCN(CC3CCCC3)C2)cc1` (as salt: hydrochloride), 190 to 192 °C; to `Cc1nc2ccccc2n1Cc1ccc(C(=O)N(C)C2CCN(C(C)C)CC2)cc1` (as salt: hydrochloride) [Example 46, N-(1-isopropylpiperidin-4-yl)-N-methyl-4-[(2-methyl-1H-benzimidazol-1-yl)methyl]benzamide], 200 to 202 °C. With `CC(C)N1CCC(N(C)C(=O)c2ccc(-n3ncc4ccccc43)cc2)CC1` (as salt: hydrochloride) [Example 72, 4-(1H-indazol-1-yl)-N-(1-isopropylpiperidin-4-yl)-N-methylbenzamide] the figure was 151 to 162 °C; with `CN(C(=O)c1ccc(-n2cc3ccccc3n2)cc1)[C@@H]1CCN(C2CCC2)C1` (as salt: hydrochloride) [Example 62, N-[(3R)-1-cyclobutylpyrrolidin-3-yl]-4-(2H-indazol-2-yl)-N-methylbenzamide], 163 to 165 °C; with `Cc1nc2ccccc2n1-c1ccc(C(=O)N[C@@H]2CCN(C3CCCCC3)C2)cc1` (as salt: hydrochloride) [Example 137, N-[(3R)-1-cyclohexylpyrrolidin-3-yl]-4-(2-methyl-1H-benzimidazol-1-yl)benzamide], 194 to 196 °C. In turn, `Cc1nc2cc(C#N)ccc2n1-c1ccc(C(=O)N(C)[C@@H]2CCN(C3CCCC3)C2)cc1` (as salt: hydrochloride) [Example 56, 4-(5-cyano-2-methyl-1H-benzimidazol-1-yl)-N-[(3R)-1-cyclopentylpyrrolidin-3-yl]-N-methylbenzamide] showed a melting point of 185 to 187 °C. To `CN(C(=O)c1ccc(-n2cc3ccccc3n2)cc1)[C@@H]1CCN(C2CCCC2)C1` (as salt: hydrochloride) [Example 63, N-[(3R)-1-cyclopentylpyrrolidin-3-yl]-4-(2H-indazol-2-yl)-N-methylbenzamide] belongs 216 to 218 °C. The compound `CC(C)N1CC[C@@H](N(C)C(=O)c2ccc(-n3cc4ccccc4n3)cc2)C1` (as salt: hydrochloride) [Example 61, 4-(2H-indazol-2-yl)-N-[(3R)-1-isopropylpyrrolidin-3-yl]-N-methylbenzamide] registered a melting point of 227 to 228 °C. In turn, `CN(C(=O)c1ccc(Cn2cnc3ccccc32)cc1)C1CCN(C2CCCC2)CC1` (as salt: hydrochloride) [Example 51, 4-(1H-benzimidazol-1-ylmethyl)-N-(1-cyclopentylpiperidin-4-yl)-N-methylbenzamide] registered a melting point of 248 to 250 °C.

As to `Cc1nc2ccccc2n1-c1ccc(C(=O)N(C)[C@@H]2CCN(C(C)C)C2)cc1` (as salt: hydrochloride), the melting point was 181 to 183 °C. To `CN(C(=O)c1ccc(Cn2ncc3ccccc32)cc1)[C@@H]1CCN(C2CCCC2)C1` (as salt: hydrochloride) [Example 78, N-[(3R)-1-cyclopentylpyrrolidin-3-yl]-4-(1H-indazol-1-ylmethyl)-N-methylbenzamide] belongs 98 to 99 °C.

For `CC(C)N1CCC(N(C)C(=O)c2ccc(Cn3cccn3)cc2)CC1` (as salt: hydrochloride) [Example 91, N-methyl-N-[1-(1-methylethyl)piperidin-4-yl]-4-(1H-pyrazol-1-ylmethyl)benzamide], the melting point lay within 213 to 215 °C.
